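The compound was tested at five concentrations on cells cultured in 96-well plates, with a 48-hour exposure period. GI50: concentration for 50% inhibition of growth.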 The source made the active and inactive calls. No stated cut-off is given here; in the data, active = GI50 up to about 1.1 µM and inactive = higher.
Tests used:
Assay in all cases: inhibition of tumour cell growth, NCI panel, 48 h
[1] = tested on: EKVX
[2] = tested on: SF-539
[3] = tested on: T47D
[4] = tested on: MDA-MB-231
[5] = tested on: HCT-116
[6] = tested on: SN12C
[7] = tested on: HT-29
[8] = tested on: BT-549
[9] = tested on: PC-3
[10] = tested on: SW-620
[11] = tested on: MDA-MB-435
[12] = tested on: SK-MEL-5
[13] = tested on: KM12
[14] = tested on: A498
[15] = tested on: NCI-H522
[16] = tested on: SNB-75
[17] = tested on: SK-MEL-28
[18] = tested on: RXF 393
[19] = tested on: IGROV-1
[20] = tested on: DMS-273

| SMILES | GI50 [1] | GI50 [2] | GI50 [3] | GI50 [4] | GI50 [5] | GI50 [6] | GI50 [7] | GI50 [8] | GI50 [9] | GI50 [10] | GI50 [11] | GI50 [12] | GI50 [13] | GI50 [14] | GI50 [15] | GI50 [16] | GI50 [17] | GI50 [18] | GI50 [19] | GI50 [20] |
| --- | --- | --- | --- | --- | --- | --- | --- | --- | --- | --- | --- | --- | --- | --- | --- | --- | --- | --- | --- | --- |
| c1ccc(CSc2nc(N3CCCCC3)c3cn[nH]c3n2)cc1 | 20.3 µM (inactive) | 18.4 µM (inactive) | 21.9 µM (inactive) | 16.3 µM (inactive) | 19.2 µM (inactive) | 19.7 µM (inactive) | 31.8 µM (inactive) | 16.5 µM (inactive) | 22.5 µM (inactive) | 19.9 µM (inactive) | 22.4 µM (inactive) | 16.5 µM (inactive) | 14.7 µM (inactive) | 15.6 µM (inactive) | 17 µM (inactive) | 20.7 µM (inactive) | 19.9 µM (inactive) | 16.1 µM (inactive) | 17.5 µM (inactive) | – |
| COc1ccc(\N=C/C=C/C(=C/COC(C)=O)OC(C)=O)cc1 | 51.8 µM (inactive) | 35.9 µM (inactive) | 72.9 µM (inactive) | 19.6 µM (inactive) | 5.53 µM (inactive) | 32.7 µM (inactive) | 23.2 µM (inactive) | 33.3 µM (inactive) | 36.4 µM (inactive) | 10.2 µM (inactive) | 18.8 µM (inactive) | 29 µM (inactive) | 28.6 µM (inactive) | 32.3 µM (inactive) | 6.62 µM (inactive) | > 100 µM (inactive) | 26.9 µM (inactive) | 21.4 µM (inactive) | 21.1 µM (inactive) | – |
| COc1ccc(C2N(c3ccc(F)c([N+](=O)[O-])c3)C(=O)N3C(c4ccc(OC)cc4)N(c4ccc(F)c([N+](=O)[O-])c4)C(=O)N23)cc1 (configuration not stated) | > 100 µM (inactive) | > 100 µM (inactive) | > 100 µM (inactive) | 57.1 µM (inactive) | > 100 µM (inactive) | > 100 µM (inactive) | > 100 µM (inactive) | > 100 µM (inactive) | > 100 µM (inactive) | > 100 µM (inactive) | > 100 µM (inactive) | > 100 µM (inactive) | > 100 µM (inactive) | > 100 µM (inactive) | > 100 µM (inactive) | > 100 µM (inactive) | > 100 µM (inactive) | > 100 µM (inactive) | > 100 µM (inactive) | – |
| NC(=O)C/C=C/CC(N)=O | > 100 µM (inactive) | > 100 µM (inactive) | > 100 µM (inactive) | > 100 µM (inactive) | > 100 µM (inactive) | > 100 µM (inactive) | > 100 µM (inactive) | > 100 µM (inactive) | > 100 µM (inactive) | > 100 µM (inactive) | > 100 µM (inactive) | > 100 µM (inactive) | > 100 µM (inactive) | > 100 µM (inactive) | > 100 µM (inactive) | > 100 µM (inactive) | > 100 µM (inactive) | > 100 µM (inactive) | > 100 µM (inactive) | – |
| Cc1cc(/N=C/c2ccc(F)cc2)n(-c2ccccc2)n1 | 66.7 µM (inactive) | > 100 µM (inactive) | 27.2 µM (inactive) | > 100 µM (inactive) | > 100 µM (inactive) | 57.3 µM (inactive) | 48.9 µM (inactive) | 85.1 µM (inactive) | > 100 µM (inactive) | > 100 µM (inactive) | 74.1 µM (inactive) | 52.5 µM (inactive) | 51.8 µM (inactive) | 42.3 µM (inactive) | 39.1 µM (inactive) | 56.1 µM (inactive) | > 100 µM (inactive) | 47.9 µM (inactive) | 84.3 µM (inactive) | – |
| C/C=C1\CN2CCc3c([nH]c4ccccc34)C2CC1C(=O)OC (configuration not stated) | > 322 µM (inactive) | > 322 µM (inactive) | – | – | > 322 µM (inactive) | > 322 µM (inactive) | > 322 µM (inactive) | – | – | > 322 µM (inactive) | – | > 322 µM (inactive) | > 322 µM (inactive) | – | 287 µM (inactive) | – | > 322 µM (inactive) | > 322 µM (inactive) | > 322 µM (inactive) | > 322 µM (inactive) |
| Cc1cc(C)c2c(c1C)CN1CN2Cc2c(C)c(C)cc(C)c21 | > 100 µM (inactive) | > 100 µM (inactive) | – | – | > 100 µM (inactive) | > 100 µM (inactive) | 44.4 µM (inactive) | – | – | > 100 µM (inactive) | – | – | > 100 µM (inactive) | – | > 100 µM (inactive) | 21 µM (inactive) | > 100 µM (inactive) | 4.38 µM (inactive) | > 100 µM (inactive) | 6.56 µM (inactive) |
| COc1cc2nc3n(c(=O)c2cc1OC)CCCCC3 | > 100 µM (inactive) | > 10 µM (inactive) | > 100 µM (inactive) | > 100 µM (inactive) | > 100 µM (inactive) | > 100 µM (inactive) | > 100 µM (inactive) | > 100 µM (inactive) | > 100 µM (inactive) | > 100 µM (inactive) | > 100 µM (inactive) | > 100 µM (inactive) | > 100 µM (inactive) | > 100 µM (inactive) | > 100 µM (inactive) | > 100 µM (inactive) | > 100 µM (inactive) | > 100 µM (inactive) | > 100 µM (inactive) | – |
| CC1(C)[C@@H]2C[C@H]1c1cnc(-c3ccccn3)cc1[C@H]2C(O)[C@@H]1c2cc(-c3ccccn3)ncc2[C@H]2C[C@@H]1C2(C)C (some centres not stated) | 0.165 µM (active) | 0.214 µM (active) | 0.505 µM (active) | 0.338 µM (active) | 0.0374 µM (active) | 0.0547 µM (active) | 0.112 µM (active) | 0.184 µM (active) | 0.332 µM (active) | 0.17 µM (active) | 1 µM (active) | 0.0461 µM (active) | 0.769 µM (active) | 0.491 µM (active) | 0.142 µM (active) | 0.773 µM (active) | 0.47 µM (active) | 0.198 µM (active) | 0.043 µM (active) | – |
| CCCCCCCCCC[C@H](O)[C@H](O)CC[C@@H](O)[C@H]1CC[C@@H]([C@H]2CC[C@H](CCCCCCC[C@@H](O)CC3=C[C@H](C)OC3=O)O2)O1 | 1.46 µM (inactive) | 4.48 µM (inactive) | 3.16 µM (inactive) | 2.31 µM (inactive) | 2.64 µM (inactive) | 4.06 µM (inactive) | 2.2 µM (inactive) | 37.5 µM (inactive) | 2.23 µM (inactive) | 2.56 µM (inactive) | 1.31 µM (inactive) | 1.06 µM (active) | 2.22 µM (inactive) | 8.97 µM (inactive) | 15.1 µM (inactive) | 2.41 µM (inactive) | 2.41 µM (inactive) | 4.48 µM (inactive) | 2.72 µM (inactive) | – |
| COc1cccc(C2c3cc4c(cc3OC(NNc3ccccc3)C2C)OCO4)c1OC (configuration not stated) | 3.45 µM (inactive) | 4.14 µM (inactive) | 5.09 µM (inactive) | 17.5 µM (inactive) | 3.78 µM (inactive) | 9.84 µM (inactive) | 12 µM (inactive) | 7.28 µM (inactive) | 1.76 µM (inactive) | 19.1 µM (inactive) | 3.04 µM (inactive) | 14 µM (inactive) | 1.59 µM (inactive) | 14.9 µM (inactive) | 2.07 µM (inactive) | 11.2 µM (inactive) | 24.2 µM (inactive) | 3.76 µM (inactive) | 4.6 µM (inactive) | – |

From ChEMBL document CHEMBL1201862, “PubChem BioAssay data set” (2004)
